Tests used:
[1] = Caco-2 flux assay for cell permeability; assay type: in vitro ADME; conditions: human; for Papp B→A at 2 h: Caco-2, 2 hours
Protocol: The cell permeability of a substance can be investigated by means of in vitro testing in a flux assay using Caco-2 cells [M. D. Troutman and D. R. Thakker, Pharm. Res. 20 (8), 1210-1224 (2003)]. For this purpose, the cells were cultured for 15-16 days on 24-well filter plates. For the determination of permeation, the respective test substance was applied in a HEPES buffer to the cells either apically (A) or basally (B) and incubated for 2 hours. After 0 hours and after 2 hours, samples were taken from the cis and trans compartments. The samples were separated by HPLC (Agilent 1200, Böblingen, Germany) using reverse phase columns. The HPLC system was coupled via a Turbo Ion Spray Interface to a Triple Quadropol mass spectrometer API 4000 (AB SCIEX Deutschland GmbH, Darmstadt, Germany). The permeability was evaluated on the basis of a Papp value, which was calculated using the formula published by Schwab et al. [D. Schwab et al., J. Med. Chem. 46, 1716-1725 (2003)]. […] Of critical importance for toxophores which are released intracellularly is the permeability from B to A [Papp (B-A)] and the ratio of Papp (B-A) to Papp (A-B) (efflux ratio): the lower this permeability, the slower the active and passive transport processes of the substance through the monolayer of Caco-2 cells.

NCI-H292 cells = assay: MTT assay, cytotoxicity of metabolites; assay type: cell-based; conditions: Homo sapiens, 96 h incubation
Protocol: The analysis of the cytotoxic effects of the anti-CD123 ADCs and the corresponding metabolites was carried out with various cell lines:
NCI-H292: human mucoepidermoid lung carcinoma cells, ATCC-CRL-1848, standard medium: RPMI 1640 (Biochrom; #FG1215, stab. glutamine)+10% FCS (Biochrom; #S0415).
The cells were cultivated according to the standard method using the growth media listed under C-1. The test is carried out by detaching the cells with a solution of Accutase in PBS (Biochrom AG #L2143; in case of adherent cell), pelleting, resuspending in culture medium, counting and sowing into a 96-well culture plate with white bottom (Costar #3610) (NCI H292: 2500 cells/well; MOLM-13: 2000 cells/well; THP-1: 8000 cells/well; NB4: 7000 cells/well; KG-1: 5000 cells/well, MV-4-11: 5000 cells/well in a total volume of 100 μl). The cells were then incubated in an incubator at 37° C. and 5% carbon dioxide. After 6 h or 48 h (adherent cells) the medium was replaced. […] After 96 h, the cell proliferation was detected using the MTT assay (ATCC, Manassas, Virginia, USA, catalogue No. 30-1010K). […] The dye formed was detected at 570 nm (Infinite M1000 pro, Tecan). The measured data were used to calculate the IC50 of the growth inhibition using the DRC (dose response curve). […]

SMILES	Papp B→A at 2 h [1] [×10⁻⁶ cm/s]	efflux ratio at 2 h ([1]; Caco-2, Papp (B-A) to Papp (A-B))	IC50 (NCI-H292 cells) [µM]
CC(C)(C)[C@H](c1cc(-c2cc(F)ccc2F)cn1Cc1ccccc1)N(CCCN)C(=O)CSC[C@H](NC(=O)CCOCCOCCOCCOCCNC(=O)CNC(=O)C(CC(=O)O)SC[C@H](N)C(=O)O)C(=O)O.O=C(O)C(F)(F)F.O=C(O)C(F)(F)F (stereo partly drawn) [Example M21, (2R,24S,27R)-27-Amino-2-[({2-[(3-aminopropyl){(1R)-1-[1-benzyl-4-(2,5-difluorophenyl)-1H-pyrrol-2-yl]-2,2-dimethylpropyl}amino]-2-oxoethyl}sulphanyl)methyl]-24-(carboxymethyl)-4,20,23-trioxo-7,10,13,16-tetraoxa-25-thia-3,19,22-triazaoctacosane-1,28-dioic acid/trifluoroacetic acid (1:2)]	0.05	1.5	
CC(C)(C)[C@H](c1cc(-c2cc(F)ccc2F)cn1Cc1ccccc1)N(CCCN)C(=O)CSC[C@H](NC(=O)CCOCCOCCOCCOCCNC(=O)CNC(=O)CC(SC[C@H](N)C(=O)O)C(=O)O)C(=O)O.O=C(O)C(F)(F)F.O=C(O)C(F)(F)F (stereo partly drawn) [Example M20, (1R,4R,27R,33R)-1-Amino-32-(3-aminopropyl)-33-[1-benzyl-4-(2,5-difluorophenyl)-1H-pyrrol-2-yl]-34,34-dimethyl-6,9,25,31-tetraoxo-13,16,19,22-tetraoxa-3,29-dithia-7,10,26,32-tetraazapentatriacontane-1,4,27-tricarboxylic acid/trifluoroacetic acid (1:2)]	0.089		0.149

Source: patent publication US20230399411A1, “SPECIFIC ANTIBODY-DRUG-CONJUGATES (ADCS) WITH KSP INHIBITORS AND ANTI-CD123-ANTIBODIES” (Bayer Pharma Aktiengesellschaft, priority 2016, published 2023)
